Experimental data taken from patent US5356887A, “Pharmaceutical compositions containing insoluble calcium salts of amino-hydroxybutylidene bisphoshonic acids” (Merck & Co., Inc., priority 1993, dated 1994).
Where a name gives a salt, the structure may show the parent alone. Read-outs that look alike come from different tables or passages of the source.

Legend:
immobilized femur [1] = details: days -2 and -1, 10 days after surgery, n = 5
Experimental: Immobilization was produced by unilateral hind limb sciatic neurectomy. Ten days after surgery the rats were sacrificed, hind limbs removed, and the femora ashed at 700° C. for 24 hours. Ash weight was determined and the difference between the ash weight of the intact limb and immobilized limb calculated and expressed as the mg difference. Per cent difference was calculated as the % difference in ash weight between the intact and immobilized limb.
(§1) mg Diff = difference in ash weight between the intact femur and the
(§2) se = standard error of the mean
(§3) % Bone Loss = ash weight difference between the intact femur and the
(§4) immobilized femur divided by the ash weight of the intact femur

[2] = in vivo
immobilized femur [3] = details: days -4 and -3, 10 days after surgery, n = 5
Experimental: On day 0 all rats underwent surgery whereby the sciatic nerve of the right hind limb was severed. Ten days following immobilization surgery, the rats were sacrificed and hind limbs removed. The femora were defleshed, maximum femoral length of both femora measured and then placed in a muffle furnace at 700° C. for 24 hours.
as §1, §2, §3, §4

rat paw = test: Local Irritation Study/Rat Paw Licking Response Test; details: suspension vs solution of the (ABP)Na salt
[4] = 0.0001 mg P/kg s.c., monocalcium salt
[5] = 0.001 mg P/kg s.c., monocalcium salt
[6] = 0.01 mg P/kg s.c., monocalcium salt
[7] = 0.1 mg P/kg s.c., monocalcium salt
[8] = 2 × 0.1 mg P/kg s.c., monocalcium salt
[9] = 2 × 1.0 mg P/kg s.c., monocalcium salt
[10] = 2 × 0.1 mg P/kg s.c., monosodium salt
[11] = 0.0001 mg P/kg s.c., monosodium salt
[12] = 0.001 mg P/kg s.c., monosodium salt
[13] = 0.01 mg P/kg s.c., monosodium salt
[14] = 0.1 mg P/kg s.c., monosodium salt

SMILES: NCCCC(O)(P(=O)(O)O)P(=O)(O)O [(ABP)Ca, [(4-amino-1-hydroxybutylidene)-1,1-bisphosphonic acid] monocalcium salt]
- % Bone Loss (immobilized femur [1]; [4]): 9.34%
- mg Diff (difference in ash weight between the intact femur and the immobilized femur) (immobilized femur [1]; [4]): 28.70 mg
- % Bone Loss (immobilized femur [1]; [5]): 7.69%
- mg Diff (difference in ash weight between the intact femur and the immobilized femur) (immobilized femur [1]; [5]): 25.98 mg
- % Bone Loss (immobilized femur [1]; [6]): 5.01%
- mg Diff (difference in ash weight between the intact femur and the immobilized femur) (immobilized femur [1]; [6]): 16.72 mg
- % Bone Loss (immobilized femur [1]; [7]): 4.12%
- mg Diff (difference in ash weight between the intact femur and the immobilized femur) (immobilized femur [1]; [7]): 13.24 mg
- Systemic release of ABP [2]: slow systemic release
- Level of the drug in the bloodstream ([2]; sc): never very high

SMILES: NCCCC(O)(P(=O)(O)O)P(=O)(O)O [(ABP)3 Ca4, tri[(4-amino-1-hydroxybutylidene)-1,1-bisphosphonic acid] tetracalcium salt]
- % Bone Loss (immobilized femur [3]; 2 × 0.1 mg P/kg s.c.): 2.48%
- mg Diff (difference in ash weight between the intact femur and the immobilized femur) (immobilized femur [3]; 2 × 0.1 mg P/kg s.c.): 7.68 mg
- % Bone Loss (immobilized femur [3]; 2 × 1.0 mg P/kg s.c.): 1.22%
- mg Diff (difference in ash weight between the intact femur and the immobilized femur) (immobilized femur [3]; 2 × 1.0 mg P/kg s.c.): 3.94 mg
- Paw licking responses and tolerability, in words (rat paw): induced a lower number of responses and were better tolerated than the solution of the (ABP)Na salt

SMILES: NCCCC(O)(P(=O)(O)O)P(=O)(O)O [(ABP)2 Ca, di[(4-amino-1-hydroxybutylidene)-1,1-bisphosphonic acid] monocalcium salt]
- % Bone Loss (immobilized femur [3]; [8]): 1.93%
- mg Diff (difference in ash weight between the intact femur and the immobilized femur) (immobilized femur [3]; [8]): 6.50 mg
- % Bone Loss (immobilized femur [3]; [9]): 2.09%
- mg Diff (difference in ash weight between the intact femur and the immobilized femur) (immobilized femur [3]; [9]): 7.38 mg
- % Bone Loss (immobilized femur [1]; [4]): 8.93%
- mg Diff (difference in ash weight between the intact femur and the immobilized femur) (immobilized femur [1]; [4]): 29.64 mg
- % Bone Loss (immobilized femur [1]; [5]): 6.58%
- mg Diff (difference in ash weight between the intact femur and the immobilized femur) (immobilized femur [1]; [5]): 22.00 mg
- % Bone Loss (immobilized femur [1]; [6]): 3.64%
- mg Diff (difference in ash weight between the intact femur and the immobilized femur) (immobilized femur [1]; [6]): 12.62 mg
- % Bone Loss (immobilized femur [1]; [7]): 4.14%
- mg Diff (difference in ash weight between the intact femur and the immobilized femur) (immobilized femur [1]; [7]): 11.32 mg
- Paw licking responses and tolerability, in words (rat paw): induced a lower number of responses and were better tolerated than the solution of the (ABP)Na salt

SMILES: NCCCC(O)(P(=O)(O)O)P(=O)(O)O [(ABP)Na, (4-amino-1-hydroxybutylidene)-1,1-bisphosphonic acid monosodium salt, reference compound]
- % Bone Loss (immobilized femur [3]; [10]): 4.68%
- mg Diff (difference in ash weight between the intact femur and the immobilized femur) (immobilized femur [3]; [10]): 14.62 mg
- % Bone Loss (immobilized femur [1]; [11]): 9.93%
- mg Diff (difference in ash weight between the intact femur and the immobilized femur) (immobilized femur [1]; [11]): 31.14 mg
- % Bone Loss (immobilized femur [1]; [12]): 5.95%
- mg Diff (difference in ash weight between the intact femur and the immobilized femur) (immobilized femur [1]; [12]): 21.32 mg
- % Bone Loss (immobilized femur [1]; [13]): 4.90%
- mg Diff (difference in ash weight between the intact femur and the immobilized femur) (immobilized femur [1]; [13]): 18.72 mg
- % Bone Loss (immobilized femur [1]; [14]): 4.15%
- mg Diff (difference in ash weight between the intact femur and the immobilized femur) (immobilized femur [1]; [14]): 14.10 mg
- Level of the drug in the bloodstream ([2]; iv): high level
